Results on four compounds are retold here after paper PMC3261753 (Biochemistry, 2011).

For experiment [1], the system named is S. pneumoniae gyrase resistance mutations. To be noted: cited from earlier work.
Experiment [2] concerns S. pneumoniae topoisomerase IV resistance mutations. To be noted: cited from earlier work.
Experiment [3] concerns wild-type B. anthracis topoisomerase IV. The experiment is classed as biochemical, Bacillus anthracis.

Some results are limits rather than exact numbers.

Consider `O=C(O)c1cn(C2CC2)c2cc(N3CCNCC3)c(F)cc2c1=O` [Ciprofloxacin], for which the “Drop in potency with mutant enzyme” value in experiment [1] is recorded as ~ 8 fold; in experiment [2], > 16 fold.
On to `C[C@@H]1CN(c2c(F)c(N)c3c(=O)c(C(=O)O)cn(C4CC4)c3c2F)C[C@H](C)N1` [sparfloxacin], for which the “Relative potency/efficacy of DNA cleavage enhancement among quinolones” value in experiment [3] was “least potent and efficacious quinolone examined”.
In the case of `Cc1c(N2CC[C@@H](CN)C2)c(F)cc2c(=O)n(N)c(=O)n(C3CC3)c12` [8-methyl-quinazoline-2,4-dione, 3-Amino-7-[(3S)-3-(aminomethyl)-1-pyrrolidinyl]-1-cyclopropyl-6-fluoro-8-methyl-2,4(1H,3H) -quinazolinedione], in experiment [3], the “CC3 (concentration of drug required to triple the percent DNA cleavage observed in the absence of drug)” value stood at 0.20 µM, the “Max. DNA cleavage” value was 29.0%, the “Mg2+ concentration for half-maximal DNA cleavage” value is reported as ~ 0.35 mM and the “Mg2+ concentration for maximal DNA cleavage” value was ~ 1 mM. In addition, the “Potency relative to ciprofloxacin (as reflected by the CC3 value)” value in experiment [3] was ~ 2.5 times.
For the compound `C[C@H]1COc2c(N3CCN(C)CC3)c(F)cc3c(=O)c(C(=O)O)cn1c23` [Levofloxacin, levofloxacin], in experiment [3], the “CC3 (concentration of drug required to triple the percent DNA cleavage observed in the absence of drug)” value was found to be 1.45 µM, the “Drug concentration that generated maximal DNA cleavage” value amounted to 20 µM, the “Max. DNA cleavage” value came out at 30.4% and the “Relative potency/efficacy of DNA cleavage enhancement among quinolones” value was “most efficacious”.
